Like-named read-outs stand apart in the source and are kept apart here.
Tests used:
LoVo cells = experiment: cells; format: cell-based, human
Experimental: (§1) The human colon cancer cell lines LoVo, HCT8, Caco-2 were obtained from the Cell Bank of the Chinese Academy of Sciences. DOX-selected ABCB1-overexpression LoVo/ADR, HCT8/ADR, Caco-2/ADR cell lines were purchased from Shanghai Yan Sheng Industrial Co., LTD. […] All the DOX-selected ABCB1-overexpression cells were seeded in a medium containing 1μM of DOX to maintain their drug resistance phenotype.

HCT8 cells = experiment: cells; format: cell-based, human
Experimental: as §1

HCT8/pcDNA3.1 cells = experiment: cells; format: cell-based, human
Experimental: (§2) HCT8/pcDNA3.1 and HCT8/ABCB1 cells were established by transfecting HCT8 with empty pcDNA3.1 or vector containing the full length ABCB1, and were cultured in medium with 2 mg/ml G418.

[1] = test system: LoVo/ADR cells (ABCB1-overexpressing)
Experimental: as §1

[2] = test system: HCT8/ADR cells (ABCB1-overexpressing)
Experimental: as §1

[3] = test system: HCT8/ABCB1 cells (ABCB1-transfected)
Experimental: as §2

[4] = test system: LoVo/ADR, HCT8/ADR, HCT8/ABCB1 and Caco-2/ADR cells and parental cells; experiment: CCK-8 cytotoxicity of BU (non-toxic concentrations); format: cell-based, human; details: MDR and parental cells
[5] = Toxicity analysis in xenograft mice; format: in vivo, athymic nude mice (BALB/c-nu/nu)
Experimental: Normal tissues (heart, liver, lung, spleen, kidney, intestine) were harvested for H&E histology studies. Venous blood samples were collected in EDTA-coated tubes for hematology studies. Samples were analyzed for white blood cells (WBC), red blood cells (RBC), platelets (PLT), aspartate aminotransferase (AST), alanine aminotransferase (ALT) and blood urea nitrogen (BUN) in the clinical laboratory at our hospital.

MDR in colon cancer = experiment: Preliminary experiment on Chansu ingredients and MDR; format: cell-based; details: six active ingredients of Chansu
HCT8/ADR xenografts = experiment: HCT8/ADR nude mouse xenograft model; details: for tumor size versus saline: q3d×5, alone
[6] = test system: LoVo/ADR cells (ABCB1-overexpressing); experiment: cells; details: Homo sapiens
Experimental: as §1

[7] = test system: HCT8/ADR cells (ABCB1-overexpressing); experiment: cells; details: Homo sapiens
Experimental: as §1

[8] = test system: HCT8/ABCB1 cells (ABCB1-transfected); experiment: cells; details: Homo sapiens
Experimental: as §2

ABCB1 = experiment: ABCB1-mediated drug transport assay (Caco-2 monolayer); details: human
Experimental: Caco-2 cells were seeded on a Costar 12-well Transwell Permeable Supports plates (0.4 μm pore size, 1.13 cm^2 of growth area, 12 mm diameter) at a density of 5.0×10^4cells/cm^2. Replaced the medium every other day and incubate plates at 37°C for 21 days. Transepithelial electrical resistance (TEER) and Lucifer yellow permeability (LY%) was measured to evaluate the integrity of the monolayer. […] Cells were washed 3 times with HBSS buffer and preincubated for 15 min. Test drugs were diluted in HBSS with 0.5 ml added to the apical side (A) or 1.5 ml to the basolateral side (B). […] Analyte concentrations were determined by Thermo Varioskan Flash.
The apparent permeability coefficient (Papp) was determined for both A to B and B to A directions by the following formula: Papp=dC/dt×V/AC0 in which A is the area of filter membrane, C0 represents the initial concentration of drug, dC/dt is the change of concentration of drug in the period of incubation time, and V is the volume of the receiver chamber. The efflux ratio (ER) was calculated from: ER=Papp(B to A)/Papp (A to B)

[9] = Homo sapiens, HCT-8, 48 h, read-out: IC50 of DOX
[10] = HCT-8, 48 h, read-out: IC50 of DOX
[11] = Homo sapiens, HCT-8, read-out: IC50 of MIT

5(6)-carboxy-2′,7′-dichlorofluorescein [CDCF]
IC50 (LoVo cells; CDCF alone, read-out: IC50 of CDCF): 1020 ± 110 µM | IC50 (HCT8 cells; HCT8, CDCF alone, read-out: IC50 of CDCF): 700 ± 100 µM | IC50 (HCT8/pcDNA3.1 cells; HCT8/pcDNA3.1, CDCF alone, read-out: IC50 of CDCF): 910 ± 180 µM | IC50 ([1]; read-out: IC50 of CDCF, LoVo/ADR, CDCF alone): 1130 ± 50 µM | IC50 ([2]; read-out: IC50 of CDCF, HCT8/ADR, CDCF alone): 960 ± 160 µM | IC50 ([3]; read-out: IC50 of CDCF, HCT8/ABCB1, CDCF alone): 1080 ± 140 µM

C[C@]12CC[C@H](O)C[C@H]1CC[C@@H]1[C@@H]2CC[C@]2(C)[C@@H](c3ccc(=O)oc3)CC[C@]12O [BU, Bufalin]
non-toxic concentration (survival rate higher than 80%), maximum for reversal assays [4]: up to 20 nM | toxicity on mice ([5]; BU 0.1mg/kg): did not induce any toxicity | effect on MDR (MDR in colon cancer): could effectively reverse MDR | tumor size versus saline (HCT8/ADR xenografts; BU 0.1 mg/kg, i.p.): No significant difference | ABCB1 expression in tumor tissue (IHC) (HCT8/ADR xenografts; HCT8/ADR xenografts, BU 0.1 mg/kg): inhibit ABCB1 expression in vivo

COc1cccc2c1C(=O)c1c(O)c3c(c(O)c1C2=O)C[C@@](O)(C(=O)CO)C[C@@H]3O[C@H]1C[C@H](N)[C@H](O)[C@H](C)O1 [DOX, doxorubicin]
fold-reversal of MDR (LoVo cells; DOX alone (reference)): 1.00 | IC50 (LoVo cells; Homo sapiens, 48 h, read-out: IC50 of DOX): 1.87 ± 0.15 µM | fold-reversal of MDR (HCT8 cells; HCT8, DOX alone (reference)): 1.00 | IC50 (HCT8 cells; [9]): 0.55 ± 0.14 µM | fold-reversal of MDR (HCT8/pcDNA3.1 cells; HCT8/pcDNA3.1, DOX alone (reference)): 1.00 | IC50 (HCT8/pcDNA3.1 cells; [9]): 0.67 ± 0.12 µM | significant toxicity: deaths ([5]; DOX 0.5 mg/kg and DOX 1.0 mg/kg groups, with weight loss): 2 deaths out of 6 mice | alanine transaminase (ALT) and aspartate transaminase (AST) ([5]; high concentration DOX (0.5, 1.0 mg/kg)): significantly elevated | fold-reversal of MDR [1]: 16.28 ± 0.54 (1.00) | fold-reversal of MDR [2]: 7.20 ± 0.80 (1.00) | fold-reversal of MDR [3]: 13.35 ± 1.15 (1.00) | IC50 ([6]; 48 h, read-out: IC50 of DOX): 16.3 ± 0.54 µM | IC50 [7, 10]: 7.2 ± 0.8 µM | IC50 [8, 10]: 13.3 ± 1.15 µM | tumor size versus saline (HCT8/ADR xenografts; DOX 0.1 mg/kg, i.p.): No significant difference | tumor growth inhibition (HCT8/ADR xenografts; DOX 0.1, 0.5, 1.0 mg/kg, i.p., q3d×5): inhibit tumor growth with a concentration-dependent pattern | Papp A→B at 120 min, 20 μM (ABCB1): 0.68 ± 0.18 ×10⁻⁶ cm/s | Papp B→A at 120 min, 20 μM (ABCB1): 3.91 ± 0.68 ×10⁻⁶ cm/s | efflux ratio at 120 min, 20 μM (ABCB1): 5.75

O=C1c2c(O)ccc(O)c2C(=O)c2c(NCCNCCO)ccc(NCCNCCO)c21 [MIT, mitoxantrone]
IC50 (LoVo cells; Homo sapiens, read-out: IC50 of MIT): 1.05 ± 0.09 µM | IC50 (HCT8 cells; [11]): 0.85 ± 0.15 µM | IC50 (HCT8/pcDNA3.1 cells; [11]): 0.88 ± 0.28 µM | IC50 ([6]; read-out: IC50 of MIT): 1.23 ± 0.08 µM | IC50 ([7]; HCT-8, read-out: IC50 of MIT): 1.02 ± 0.28 µM | IC50 ([8]; HCT-8, read-out: IC50 of MIT): 1 ± 0.2 µM

CC(=O)O[C@H]1[C@H]2O[C@]23[C@@H]2CC[C@@H]4C[C@@H](O)CC[C@]4(C)[C@H]2CC[C@]3(C)[C@H]1c1ccc(=O)oc1 [cinobufagin]
effect on MDR (MDR in colon cancer): could effectively reverse MDR
